Tested on: vaginal proteome (human proteins in vaginal fluid)
Assay: MS/MS proteomic analysis of vaginal fluid pools, BV-affected women before (BV) and after rifaximin/placebo treatment: human proteins
Type: in vivo
Settings: for Ratio: BV/R, Alpha-1-acid glycoprotein 1 / Ratio: BV/R, Alpha-1-acid glycoprotein 2 / Ratio: BV/R, Calcium-activated chloride channel regulator 4 / Ratio: BV/R, Catalase / Ratio: BV/R, Desmocollin-2 / Ratio: BV/R, Galectin-3-binding protein / Ratio: BV/R, Hemopexin / Ratio: BV/R, Ig mu chain C region / Ratio: BV/R, Immunoglobulin J chain / Ratio: BV/R, Keratin, type I cytoskeletal 10 / Ratio: BV/R, Keratin, type II cytoskeletal 1 / Ratio: BV/R, Keratin, type II cytoskeletal 2 epidermal / Ratio: BV/R, Keratin, type II cytoskeletal 5 / Ratio: BV/R, Lymphocyte-specific protein 1 / Ratio: BV/R, Myeloblastin / Ratio: BV/R, Neutrophil gelatinase-associated lipocalin / Ratio: BV/R, Perilipin-3 / Ratio: BV/R, Periplakin / Ratio: BV/R, Protein S100-A7 / Ratio: BV/R, Protein S100-A9 / Ratio: BV/R, Small proline-rich protein 3 / Ratio: BV/R, Superoxide dismutase [Cu—Zn] / Ratio: BV/R, Vitamin D-binding protein: vaginal fluid
Method: Proteomic analysis was performed on 9 pools of vaginal isolates, grouped according to the status of the BV infection: • H pool (from 41 healthy women); BV pool (from 39 BV-affected women); • A-R pool (from 2 women who were in remission after rifaximin treatment-group A); • A-N pool (from 8 women who were not in remission after rifaximin treatment-group A); • B-R pool (from 5 women who were in remission after rifaximin treatment-group B); • B-N pool (from 5 women who were not in remission after rifaximin treatment-group B); • C-R pool (from 4 women who were in remission after rifaximin treatment-group C); • C-N (from 5 women who were not in remission after rifaximin treatment-group C); • D-N (from 10 women who were not in remission after placebo treatment-group D). Scheme of the vaginal fluids collected for testing the diagnostic method is represented in FIG. 1.
In these figures are reported the peptides in the fractionated pools of healthy women, women affected by BV and peptides of women treated with rifaximin. The treatment with rifaximin was at dosage of 100 mg/day for 5 days; (remission, A-R; no remission, A-N), 25 mg/5 days (remission, B-R; no remission, B-N), 100 mg/2 days (remission, C-R; no remission, C-N), and placebo for 5 days (D-N). Two types of comparisons were carried out: (i) between fractionated pools of proteins from vaginal fluid of healthy women (HF) versus fractionated pool of proteins from vaginal fluid of women affected by bacterial vaginosis (BVF); (ii) between whole pools of proteins from vaginal fluid of women affected by BV treated by administering different doses of rifaximin or placebo before (BV) and after (A-R, A-N, B-R, B-N, C-R, C-N, D-N) treatment. Fractioned pools of proteins are obtained, e.g., by separating the proteins by separation on membrane filtration with different membrane porosity, prior to MS/MS analysis.
Nine volumes of acetone: HCl (10:1) were added to the supernatant of the vaginal rinsing and proteins were precipitated by centrifuging at 12000 g for 10 min. The protein pellet was dissolved in 1 mL of 70% ethanol and the sample was spun at 12000 g for 10 min. One mL of acetone was added and the proteins were further precipitated by centrifugation at 12000 g for 5 min. After removing supernatant, pellet was dried by SpeedVac concentrator (Thermo Savant ISS110, Thermo Fisher Scientific, Waltham, Mass.) and then stored at −20° C.
Protein extract was quantified using the 2-D Quant Kit (GE Healthcare, Uppsala, Sweden) according to the manufacturer's instructions.
Patients who were diagnosed for BV at the study visit V1 were included in a multicentre, double-blind, randomised, placebo-controlled study (EudraCT: 2009-011826-32), that was performed to compare the efficacy of different doses of rifaximin vaginal tablets versus placebo for the treatment of BV. The patients underwent a randomisation visit and were distributed into 4 treatment groups: group A received 100 mg rifaximin vaginal tablet once daily for 5 days (n=10), group B received 25 mg rifaximin vaginal tablet once daily for 5 days (n=10), group C received 100 mg rifaximin vaginal tablet once daily for the first 2 days and placebo vaginal tablet for the remaining 3 days (n=9), group D received placebo vaginal tablet once daily for 5 days (n=10). Study medication was administered intra-vaginally at bedtime. After 7 to 10 days from the end of the therapy a follow-up visit (V3) was performed. Remission was evaluated at V3 according to Amsel's criteria (<3) and Gram stain Nugent score (≦3) (Table 1).
Standardized vaginal rinsings with 2 mL of saline were collected for analysis at V1 and V3 by flushing and re-aspirating the fluid through a 22 Gauge needle in the left, central and right upper vaginal vaults. The vaginal rinsings were subsequently stored at −80° C. until use.
MS/MS analysis was carried out for H and BV pools and for the whole BV, A-R, A-N, B-R, B-N, C-R, C-N and D-N pools containing 50 μg of protein each. […]

[1] = A-R pool (100 mg × 5 days, in remission) vs BV pool before treatment
[2] = B-R pool (25 mg × 5 days, in remission) vs BV pool before treatment
[3] = B-R pool (25 mg × 5 days, remission) vs BV pool
[4] = B-R pool vs BV pool, differentially expressed only in B-R
[5] = C-R pool (100 mg × 2 days, in remission) vs BV pool before treatment

CO[C@H]1/C=C/O[C@@]2(C)Oc3c(C)c(O)c4c(O)c(c5c(nc6cc(C)ccn65)c4c3C2=O)NC(=O)/C(C)=C\C=C\[C@H](C)[C@H](O)[C@@H](C)[C@@H](O)[C@@H](C)[C@H](OC(C)=O)[C@@H]1C [rifaximin]
Ratio: BV/R, Alpha-1-acid glycoprotein 1 [1]: 2.3 | Ratio: BV/R, Alpha-1-acid glycoprotein 2 [1]: 1.5 | Ratio: BV/R, Calcium-activated chloride channel regulator 4 [1]: 2.9 | Ratio: BV/R, Catalase [1]: 0.0 | Ratio: BV/R, Desmocollin-2 [1]: −1.5 | Ratio: BV/R, Galectin-3-binding protein [1]: 3.6 | Ratio: BV/R, Hemopexin [1]: 1.9 | Ratio: BV/R, Ig mu chain C region [1]: 1.8 | Ratio: BV/R, Immunoglobulin J chain [1]: −1.5 | Ratio: BV/R, Keratin, type I cytoskeletal 10 [1]: −2.8 | Ratio: BV/R, Keratin, type II cytoskeletal 1 [1]: −3.9 | Ratio: BV/R, Keratin, type II cytoskeletal 2 epidermal [1]: −4.3 | Ratio: BV/R, Keratin, type II cytoskeletal 5 [1]: −16.3 | Ratio: BV/R, Lymphocyte-specific protein 1 [1]: −2.8 | Ratio: BV/R, Myeloblastin [1]: 0.0 | Ratio: BV/R, Neutrophil gelatinase-associated lipocalin [1]: 0.0 | Ratio: BV/R, Perilipin-3 [1]: −1.7 | Ratio: BV/R, Periplakin [1]: −3.6 | Ratio: BV/R, Protein S100-A7 [1]: 19.2 | Ratio: BV/R, Protein S100-A9 [1]: 4.2 | Ratio: BV/R, Small proline-rich protein 3 [1]: −6.6 | Ratio: BV/R, Superoxide dismutase [Cu—Zn] [1]: 1.8 | Ratio: BV/R, Vitamin D-binding protein [1]: 1.7 | number of differentially expressed human proteins (B-N pool vs BV pool): 155 | Ratio: BV/R, Alpha-1-acid glycoprotein 1 [2]: 7.8 | Ratio: BV/R, Alpha-1-acid glycoprotein 2 [2]: 19.5 | Ratio: BV/R, Calcium-activated chloride channel regulator 4 [2]: 0.0 | Ratio: BV/R, Catalase [2]: 4.0 | Ratio: BV/R, Desmocollin-2 [2]: −2.0 | Ratio: BV/R, Galectin-3-binding protein [2]: 2.7 | Ratio: BV/R, Hemopexin [2]: 9.0 | Ratio: BV/R, Ig mu chain C region [2]: 8.1 | Ratio: BV/R, Immunoglobulin J chain [2]: −4.1 | Ratio: BV/R, Keratin, type I cytoskeletal 10 [2]: −3.5 | Ratio: BV/R, Keratin, type II cytoskeletal 1 [2]: −6.2 | Ratio: BV/R, Keratin, type II cytoskeletal 2 epidermal [2]: −7.1 | Ratio: BV/R, Keratin, type II cytoskeletal 5 [2]: −12.7 | Ratio: BV/R, Lymphocyte-specific protein 1 [2]: −3.2 | Ratio: BV/R, Myeloblastin [2]: 3.1 | Ratio: BV/R, Neutrophil gelatinase-associated lipocalin [2]: −1.5 | Ratio: BV/R, Perilipin-3 [2]: −2.9 | Ratio: BV/R, Periplakin [2]: −3.4 | Ratio: BV/R, Protein S100-A7 [2]: 5.7 | Ratio: BV/R, Protein S100-A9 [2]: 2.6 | Ratio: BV/R, Small proline-rich protein 3 [2]: −6.6 | Ratio: BV/R, Superoxide dismutase [Cu—Zn] [2]: 1.5 | Ratio: BV/R, Vitamin D-binding protein [2]: 17.8 | expression change of Kininogen-1 [3]: −88.6 ratio | expression change of Prostate stem cell antigen [3]: 63.8 ratio | expression change of Stanniocalcin-1 [3]: 113.1 ratio | number of differentially expressed human proteins (B-R pool vs BV pool): 214 | expression change of Ig heavy chain V-III region BUT [4]: −1.6 ratio | expression change of Ig heavy chain V-III region VH26 [4]: −1.5 ratio | expression change of Kallikrein-13 [4]: 1.5 ratio | expression change of Neutrophil gelatinase-associated lipocalin [4]: 1.5 ratio | expression change of Zinc-alpha-2-glycoprotein [4]: −9.4 ratio | Ratio: BV/R, Alpha-1-acid glycoprotein 1 [5]: 0.0 | Ratio: BV/R, Alpha-1-acid glycoprotein 2 [5]: −1.9 | Ratio: BV/R, Calcium-activated chloride channel regulator 4 [5]: 1.8 | Ratio: BV/R, Catalase [5]: 2.3 | Ratio: BV/R, Desmocollin-2 [5]: 0.0 | Ratio: BV/R, Galectin-3-binding protein [5]: 0.0 | Ratio: BV/R, Hemopexin [5]: 1.7 | Ratio: BV/R, Ig mu chain C region [5]: 0.0 | Ratio: BV/R, Immunoglobulin J chain [5]: −2.2 | Ratio: BV/R, Keratin, type I cytoskeletal 10 [5]: 0.0 | Ratio: BV/R, Keratin, type II cytoskeletal 1 [5]: −2.3 | Ratio: BV/R, Keratin, type II cytoskeletal 2 epidermal [5]: 0.0 | Ratio: BV/R, Keratin, type II cytoskeletal 5 [5]: −2.5 | Ratio: BV/R, Lymphocyte-specific protein 1 [5]: 0.0 | Ratio: BV/R, Myeloblastin [5]: 4.0 | Ratio: BV/R, Neutrophil gelatinase-associated lipocalin [5]: 0.0 | Ratio: BV/R, Perilipin-3 [5]: −2.3 | Ratio: BV/R, Periplakin [5]: −2.0 | Ratio: BV/R, Protein S100-A7 [5]: 2.5 | Ratio: BV/R, Protein S100-A9 [5]: 0.0 | Ratio: BV/R, Small proline-rich protein 3 [5]: −4.4 | Ratio: BV/R, Superoxide dismutase [Cu—Zn] [5]: 0.0

Source: US20160047819A1, “METHOD FOR DIAGNOSING VAGINAL INFECTIONS” (priority 2013, published 2016)
